# In ChEMBL document CHEMBL5724914, “Linking interpersonal differences in gut microbiota composition and drug biotransformation activity” (2024):
# Assays:
# [1] = human gut metagenome, 24 h, 2 µM
# [2] = (§1) The drug is tested on Z-012 corresponding to metagenome with ENA study accession number: PRJEB37062 and ENA sample accession number: ERS12561812 for biotransformation under anaerobic condition. The drug concentrations were measured over 9 timepoints collected between 0 and 24 hours of incubation by liquid-chromatography-coupled mass spectrometry (LC–MS); settings: 2 µM
# [3] = human gut metagenome, 24 h, 2 µM; remark: listed apart in the source
# [4] = (§2) The drug is tested on Z-029 corresponding to rat gut metagenome with ENA study accession number: PRJEB37062 and ENA sample accession number: ERS12561828 for biotransformation under anaerobic condition. The drug concentrations were measured over 9 timepoints collected between 0 and 24 hours of incubation by liquid-chromatography-coupled mass spectrometry (LC–MS); settings: 2 µM
# [5] = human gut metagenome, 24 h, 2 µM; remark: listed apart in the source
# [6] = as §2, with “on WLS-038” for “on Z-029”, “to human” for “to rat”, “number: ERS12561745” for “number: ERS12561828”; settings: 2 µM
# [7] = as §2, with “on Z-024” for “on Z-029”, “to pig” for “to rat”, “number: ERS12561823” for “number: ERS12561828”; settings: 2 µM
# [8] = as §2, with “on Z-006” for “on Z-029”, “to mouse” for “to rat”, “number: ERS12561806” for “number: ERS12561828”; settings: 2 µM
# [9] = human gut metagenome, 24 h, 2 µM; remark: listed apart in the source
# [10] = as §2, with “on WLS-006” for “on Z-029”, “to human” for “to rat”, “number: ERS12561741” for “number: ERS12561828”; settings: 2 µM
# [11] = as §2, with “on Z-020” for “on Z-029”, “to rabbit” for “to rat”, “number: ERS12561819” for “number: ERS12561828”; settings: 2 µM
# [12] = as §1, with “Z-023” for “Z-012”, “ERS12561822” for “ERS12561812”; settings: 2 µM
# [13] = human gut metagenome, 24 h, 2 µM; remark: listed apart in the source
# [14] = human gut metagenome, 24 h, 2 µM; remark: listed apart in the source
# [15] = as §1, with “Z-008” for “Z-012”, “ERS12561808” for “ERS12561812”; settings: 2 µM
# [16] = as §1, with “Z-005” for “Z-012”, “ERS12561805” for “ERS12561812”; settings: 2 µM
# [17] = human gut metagenome, 24 h, 2 µM; remark: listed apart in the source
# [18] = as §2, with “on Z-009” for “on Z-029”, “to pig” for “to rat”, “number: ERS12561809” for “number: ERS12561828”; settings: 2 µM
# [19] = as §2, with “on Z-016” for “on Z-029”, “to mouse” for “to rat”, “number: ERS12561815” for “number: ERS12561828”; settings: 2 µM
# [20] = as §2, with “on Z-013” for “on Z-029”, “to rabbit” for “to rat”, “number: ERS12561813” for “number: ERS12561828”; settings: 2 µM
# Note: call rule not given here.
Structure (SMILES),Bacterial Biotransformation [1],Bacterial Biotransformation [2],Bacterial Biotransformation [3],Bacterial Biotransformation [4],Bacterial Biotransformation [5],Bacterial Biotransformation [6],Bacterial Biotransformation [7],Bacterial Biotransformation [8],Bacterial Biotransformation [9],Bacterial Biotransformation [10],Bacterial Biotransformation [11],Bacterial Biotransformation [12],Bacterial Biotransformation [13],Bacterial Biotransformation [14],Bacterial Biotransformation [15],Bacterial Biotransformation [16],Bacterial Biotransformation [17],Bacterial Biotransformation [18],Bacterial Biotransformation [19],Bacterial Biotransformation [20]
O=C(Nc1ccccc1)OCC(CN1CCCCC1)OC(=O)Nc1ccccc1 (stereo not given) [DIPERODON],Compound NOT metabolized,Compound NOT metabolized,Compound NOT metabolized,Compound NOT metabolized,Compound NOT metabolized,Compound NOT metabolized,Compound metabolized,Compound NOT metabolized,Compound metabolized,Compound NOT metabolized,Compound NOT metabolized,Compound metabolized,Compound metabolized,Compound NOT metabolized,Compound NOT metabolized,Compound NOT metabolized,Compound metabolized,Compound metabolized,Compound NOT metabolized,Compound NOT metabolized
CC(C)N(CCC(C(N)=O)(c1ccccc1)c1ccccn1)C(C)C.O=P(O)(O)O (stereo not given) [DISOPYRAMIDE PHOSPHATE],Compound NOT metabolized,Compound NOT metabolized,Compound NOT metabolized,Compound NOT metabolized,Compound NOT metabolized,Compound NOT metabolized,Compound NOT metabolized,Compound NOT metabolized,Compound metabolized,Compound metabolized,Compound NOT metabolized,Compound NOT metabolized,Compound NOT metabolized,Compound NOT metabolized,Compound NOT metabolized,Compound NOT metabolized,Compound NOT metabolized,Compound NOT metabolized,Compound NOT metabolized,Compound NOT metabolized
C[C@@H](CO)NC(=O)[C@@H]1C=C2c3cccc4[nH]cc(c34)C[C@H]2N(C)C1.O=C(O)/C=C\C(=O)O [ERGONOVINE MALEATE],Compound NOT metabolized,Compound NOT metabolized,Compound metabolized,Compound NOT metabolized,Compound metabolized,Compound metabolized,Compound NOT metabolized,Compound NOT metabolized,Compound metabolized,Compound metabolized,Compound NOT metabolized,Compound NOT metabolized,Compound NOT metabolized,Compound NOT metabolized,Compound NOT metabolized,Compound NOT metabolized,Compound metabolized,Compound NOT metabolized,Compound NOT metabolized,Compound NOT metabolized
CCN(CC)C(C)CN1c2ccccc2Sc2ccccc21 (stereo not given) [ETHOPROPAZINE],Compound metabolized,Compound metabolized,Compound metabolized,Compound NOT metabolized,Compound metabolized,Compound NOT metabolized,Compound metabolized,Compound NOT metabolized,Compound metabolized,Compound metabolized,Compound NOT metabolized,Compound metabolized,Compound metabolized,Compound NOT metabolized,Compound NOT metabolized,Compound metabolized,Compound metabolized,Compound metabolized,Compound NOT metabolized,Compound NOT metabolized
Cc1nc(-c2ccc(OCC(C)C)c(C#N)c2)sc1C(=O)O [FEBUXOSTAT],Compound metabolized,Compound NOT metabolized,Compound metabolized,Compound NOT metabolized,Compound metabolized,Compound metabolized,Compound metabolized,Compound NOT metabolized,Compound metabolized,Compound metabolized,Compound metabolized,Compound metabolized,Compound metabolized,Compound metabolized,Compound NOT metabolized,Compound metabolized,Compound metabolized,Compound NOT metabolized,Compound metabolized,Compound NOT metabolized
CC(C)(C(=O)O)c1ccc(C(O)CCCN2CCC(C(O)(c3ccccc3)c3ccccc3)CC2)cc1 (stereo not given) [FEXOFENADINE],Compound NOT metabolized,Compound NOT metabolized,Compound NOT metabolized,Compound NOT metabolized,Compound NOT metabolized,Compound NOT metabolized,Compound metabolized,Compound NOT metabolized,Compound NOT metabolized,Compound NOT metabolized,Compound NOT metabolized,Compound metabolized,Compound NOT metabolized,Compound NOT metabolized,Compound NOT metabolized,Compound NOT metabolized,Compound NOT metabolized,Compound NOT metabolized,Compound NOT metabolized,Compound NOT metabolized
OCCN1CCN(CCCN2c3ccccc3Sc3ccc(C(F)(F)F)cc32)CC1 [FLUPHENAZINE],Compound metabolized,Compound metabolized,Compound metabolized,Compound NOT metabolized,Compound metabolized,Compound metabolized,Compound metabolized,Compound metabolized,Compound metabolized,Compound NOT metabolized,Compound NOT metabolized,Compound metabolized,Compound metabolized,Compound NOT metabolized,Compound NOT metabolized,Compound metabolized,Compound metabolized,Compound metabolized,Compound NOT metabolized,Compound NOT metabolized
